This note sets out measurements from US20130150376A1, “Novel Sultam Compounds” (PFIZER INC., priority 2010, published 2013).

Molecules are shown by their SMILES. Counter-ions that a name gives are not always drawn. Like-named read-outs stand apart in the source and are kept apart here.

In the assay the target is T1, BACE1 enzyme (soluble, truncated BACE enzyme, BACE1deltaTM96His) (Homo sapiens, UniProt P56817).
T1 construct: soluble, truncated BACE enzyme (BACE1deltaTM96His); His; made in house
Briefly: BACE1 Fluorescent Polarization (FP) Assay. The format is biochemical. Conditions: geometric mean of 2-4 IC50 determinations unless footnoted (^2: 5-6 determinations; ^4: single determination). An excerpt:
BACE1 Fluorescent Polarization (FP) Assay
The fluorescently tagged synthetic substrate, Biotin-GLTNIKTEEISEISŶEVEFR-C[oregon green]KK-OH can be efficiently cleaved by the beta-secretase enzyme and is therefore useful to assay beta-secretase activity in the presence or absence of inhibitory compounds. The his tagged BACE1 enzyme was affinity purified material from conditioned media of CHO-K1 cells that had been transfected to express soluble, truncated BACE enzyme (BACE1deltaTM96His). Compounds were incubated in a ½ log dose response (from a top concentration of 100 μM) with BACE1 enzyme (0.1 nM final) and the biotinylated fluorescent peptide substrate (150 nM final) in assay buffer containing 100 mM sodium acetate, pH 4.5 (brought to pH with acetic acid), and 0.001% Tween-20. Total reaction volumes of 30 μL were carried out in 384-well black plates (Thermo Scientific 4318). Plates were covered and incubated for 3 hours at 37° C. The reactions were then stopped by addition of 30 μL of 1.5 μM Streptavidin (Pierce, 21125). After a 10 minute incubation at room temperature, plates were read on a PerkinElmer Envision for fluorescence polarization (Ex485 nm/Em530 nm). The activity of the beta-secretase enzyme is detected by changes in the fluorescence polarization (Δ mP) that occur when the substrate is cleaved by the enzyme.

Setting [1] is: 11-point curve, read-out: BACE activity, 11-point curve, IC50.
Setting [2] is: 8-point curve, read-out: BACE activity, 8-point curve, IC50.

T1 sequence (P56817 46-457): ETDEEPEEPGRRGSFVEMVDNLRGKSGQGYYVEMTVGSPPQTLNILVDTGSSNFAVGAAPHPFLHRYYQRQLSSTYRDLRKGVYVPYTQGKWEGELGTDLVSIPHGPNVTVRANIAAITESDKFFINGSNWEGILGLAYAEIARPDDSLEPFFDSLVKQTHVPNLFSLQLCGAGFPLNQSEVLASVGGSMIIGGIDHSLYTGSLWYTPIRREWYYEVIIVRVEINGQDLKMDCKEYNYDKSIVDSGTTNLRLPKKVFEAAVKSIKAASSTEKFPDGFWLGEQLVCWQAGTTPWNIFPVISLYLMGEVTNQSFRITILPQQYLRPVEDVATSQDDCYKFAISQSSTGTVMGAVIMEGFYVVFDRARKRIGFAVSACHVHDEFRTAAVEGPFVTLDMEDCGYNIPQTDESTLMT

For `CC(C)Cc1ncoc1CN1CC[C@]2(CC(C)S(=O)(=O)N2c2cccc(F)c2)C[C@@H]1C` (mixture of isomers) [Example 2, (5R,7S)-1-(3-Fluorophenyl)-8-[(4-isobutyl-1,3-oxazol-5-yl)methyl]-3,7-dimethyl-2-thia-1,8-diazaspiro[4.5]decane 2,2-dioxide, formate salt], under setting [1], the IC50 worked out at 4440 nM.

Take `C[C@H]1C[C@@]2(C=CS(=O)(=O)N2c2cccc(F)c2)CCN1Cc1ccc(O)c(C2CCCO2)c1` (mixture of isomers) [Example 11, 4-{[(5R,7S)-1-(3-fluorophenyl)-7-methyl-2,2-dioxido-2-thia-1,8-diazaspiro[4.5]dec-3-en-8-yl]methyl}-2-(tetrahydrofuran-2-yl)phenol]: the IC50 under setting [2] was determined as 53.3 nM.

With `C[C@H]1C[C@]2(CCN1Cc1ccc(O)c(C3CCCO3)c1)CCS(=O)(=O)N2c1cccc(F)c1` (mixture of isomers) [Example 61, 4-{[(5R,7S)-1-(3-fluorophenyl)-7-methyl-2,2-dioxido-2-thia-1,8-diazaspiro[4.5]dec-8-yl]methyl}-2-(tetrahydrofuran-2-yl)phenol], the IC50 under setting [2] was below 30.5 nM.

Regarding `C[C@H]1C[C@]2(CCN1Cc1ncoc1C1CCCO1)CCS(=O)(=O)N2c1cccc(F)c1` (mixture of isomers) [Example 80, (5R,7S)-1-(3-fluorophenyl)-7-methyl-8-{[5-(tetrahydrofuran-2-yl)-1,3-oxazol-4-yl]methyl}-2-thia-1,8-diazaspiro[4.5]decane 2,2-dioxide], the IC50 under setting [1] came to 6460 nM.

`C[C@H]1CCO[C@H]1c1ocnc1CN1CC[C@]2(C=CS(=O)(=O)N2c2cccc(F)c2)C[C@@H]1C` (relative stereo) [Example 69, (5R,7S)-1-(3-fluorophenyl)-7-methy1-8-({5-[cis-3-methyltetrahydrofuran-2-yl]-1,3-oxazol-4-yl}methyl)-2-thia-1,8-diazaspiro[4.5]dec-3-ene 2,2-dioxide]: under setting [1], the IC50 was 7070 nM.

Regarding `C[C@H]1C[C@@]2(C=CS(=O)(=O)N2c2cccc(F)c2)CCN1Cc1ccc(O)c(C2CCCO2)c1` (single isomer, unassigned) [Example 30], the IC50 under setting [2] worked out at 208 nM.

For the compound `C[C@H]1C[C@@]2(C=CS(=O)(=O)N2c2cccc(F)c2)CCN1Cc1ccc(O)c(C2CCCO2)c1` (single isomer, unassigned) [Example 31], the IC50 runs as follows: under setting [2], 10.5 nM; under setting [1], 62.6 nM.

`C[C@H]1C[C@]2(CCN1Cc1ccc(O)c(C3CCCO3)c1)CCS(=O)(=O)N2c1cccc(F)c1` (single isomer, unassigned) [Example 46]: the IC50 amounted to 866 nM under setting [2] and 3010 nM under setting [1].

Regarding `C[C@H]1C[C@]2(CCN1Cc1ccc(O)c(C3CCCO3)c1)CCS(=O)(=O)N2c1cccc(F)c1` (single isomer, unassigned) [Example 47], the IC50 runs as follows: under setting [2], 47.1 nM; under setting [1], 249 nM.

`CC(C)Oc1cc(CN2CC[C@]3(CCS(=O)(=O)N3c3cccc(F)c3)C[C@@H]2C)ccc1O` [Example 1, 4-{[(5R,7S)-1-(3-Fluorophenyl)-7-methyl-2,2-dioxido-2-thia-1,8-diazaspiro[4.5]dec-8-yl]methyl}-2-isopropoxyphenol]: the IC50 under setting [2] was 35 nM.

`CC(C)Oc1cc(CN2CC[C@]3(CCS(=O)(=O)N3c3cccc(F)c3)C[C@@H]2C)ncc1O` [Example 3, 6-{[(5R,7S)-1-(3-Fluorophenyl)-7-methyl-2,2-dioxido-2-thia-1,8-diazaspiro[4.5]dec-8-yl]methyl}-4-isopropoxypyridin-3-ol]: the IC50 was 81.5 nM under setting [2] and 613 nM under setting [1].

With `Cc1ccsc1-c1cc(CN2CC[C@]3(C=CS(=O)(=O)N3c3cccc(F)c3)C[C@@H]2C)ccc1O` [Example 5, 4-{[(5R,7S)-1-(3-fluorophenyl)-7-methyl-2,2-dioxido-2-thia-1,8-diazaspiro[4.5]dec-3-en-8-yl]methyl}-2-(3-methyl-2-thienyl)phenol, hydrochloride salt], the IC50 under setting [2] was determined as 0.731 nM.

Take `CCc1ccccc1-c1cc(CN2CC[C@]3(C=CS(=O)(=O)N3c3cccc(F)c3)C[C@@H]2C)ccc1O` [Example 6, 2′-ethyl-5-{[(5R,7S)-1-(3-fluorophenyl)-7-methyl-2,2-dioxido-2-thia-1,8-diazaspiro[4.5]dec-3-en-8-yl]methyl}biphenyl-2-ol]: under setting [2], the IC50 is below 4.2 nM.

As to `C[C@H]1C[C@@]2(C=CS(=O)(=O)N2c2cccc(F)c2)CCN1Cc1ccc(O)c(C2CCCC2)c1` [Example 7, 2-cyclopentyl-4-{[(5R,7S)-1-(3-fluorophenyl)-7-methyl-2,2-dioxido-2-thia-1,8-diazaspiro[4.5]dec-3-en-8-yl]methyl}phenol], the IC50 under setting [2] came to 21.9 nM.

With `CCc1ccccc1-c1cc(CN2CC[C@]3(CCS(=O)(=O)N3c3cccc(F)c3)C[C@@H]2C)ccc1O` [Example 8, 2′-ethyl-5-{[(5R,7S)-1-(3-fluorophenyl)-7-methyl-2,2-dioxido-2-thia-1,8-diazaspiro[4.5]dec-8-yl]methyl}biphenyl-2-ol], the IC50 under setting [2] amounted to 124 nM.

In the case of `CC(C)Oc1cc(CN2CC[C@]3(C=CS(=O)(=O)N3c3cccc(F)c3)C[C@@H]2C)ccc1O` [Example 9, 4-{[(5R,7S)-1-(3-ftuorophenyl)-7-methyl-2,2-dioxido-2-thia-1,8-diazaspiro[4.5]dec-3-en-8-yl]methyl}-2-isopropoxyphenol], the half-maximal inhibitory concentration (IC50) stood at 23.5 nM under setting [2] and 77.9 nM under setting [1].

As for `C[C@H]1C[C@@]2(C=CS(=O)(=O)N2c2cccc(F)c2)CCN1Cc1ccc(O)c(OC(F)(F)F)c1` [Example 10, 4-{[(5R,7S)-1-(3-fluorophenyl)-7-methyl-2,2-dioxido-2-thia-1,8-diazaspiro[4.5]dec-3-en-8-yl]methyl}-2-(trifluoromethoxy)phenol, hydrochloride salt], the IC50 under setting [2] was found to be 181 nM.

Regarding `CC(C)Cc1ocnc1CN1CC[C@]2(C=CS(=O)(=O)N2c2cccc(F)c2)C[C@@H]1C` [Example 12, (5R,7S)-1-(3-fluorophenyl)-8-[(5-isobutyl-1,3-oxazol-4-yl)methyl]-7-methyl-2-thia-1,8-diazaspiro[4.5]dec-3-ene 2,2-dioxide], the IC50 under setting [2] stood at 338 nM.

Regarding `C[C@H]1C[C@@]2(C=CS(=O)(=O)N2c2cccc(F)c2)CCN1Cc1ccc(O)c(OC2CC2)c1` [Example 13, 2-(cyclopropyloxy)-4-{[(5R,7S)-1-(3-fluorophenyl)-7-methyl-2,2-dioxido-2-thia-1,8-diazaspiro[4.5]dec-3-en-8-yl]methyl}phenol, hydrochloride salt], the IC50 under setting [2] was determined as 18.4 nM.

With `C[C@H]1C[C@@]2(C=CS(=O)(=O)N2c2cccc(F)c2)CCN1Cc1ccc(O)c(OC2CC2)c1` [Example 14, 2-(cyclopropyloxy)-4-{[(5R,7S)-1-(3-fluorophenyl)-7-methyl-2,2-dioxido-2-thia-1,8-diazaspiro[4.5]dec-3-en-8-yl]methyl}phenol], the 50% inhibitory concentration (IC50) under setting [2] is 42.5 nM.

Regarding `C[C@H]1C[C@@]2(C=CS(=O)(=O)N2c2cccc(F)c2)CCN1Cc1ccc(O)c(Cl)c1` [Example 15, 2-chloro-4-{[(5R,7S)-1-(3-fluorophenyl}-7-methyl-2,2-dioxido-2-thia-1,8-diazaspiro[4.5]dec-3-en-8-yl]methyl}phenol, hydrochloride salt], the IC50 under setting [2] came to 754 nM and the IC50 under setting [1] is 478 nM.

`C[C@H]1C[C@@]2(C=CS(=O)(=O)N2c2cccc(F)c2)CCN1Cc1ccc(O)c(C(F)(F)F)c1` [Example 16, 4-{[(5R,7S)-1-(3-fluorophenyl)-7-methyl-2,2-dioxido-2-thia-1,8-diazaspiro[4.5]dec-3-en-8-yl]methyl}-2-(trifluoromethyl)phenol, hydrochloride salt]: under setting [2], the IC50 is 322 nM.

As for `CC(C)Oc1cccc(CN2CC[C@]3(C=CS(=O)(=O)N3c3cccc(F)c3)C[C@@H]2C)c1` [Example 17, (5R,7S)-1-(3-fluorophenyl)-8-(3-isopropoxybenzyl)-7-methyl-2-thia-1,8-diazaspiro[4.5]dec-3-ene 2,2-dioxide], the IC50 was determined as 84.9 nM under setting [2] and 908 nM under setting [1].

In the case of `C[C@H]1C[C@@]2(C=CS(=O)(=O)N2c2cccc(F)c2)CCN1Cc1ccc(O)c(F)c1` [Example 18, 2-fluoro-4-{[(5R,7S)-1-(3-fluorophenyl)-7-methyl-2,2-dioxido-2-thia-1,8-diazaspiro[4.5]dec-3-en-8-yl]methyl}phenol, hydrochloride salt], under setting [2], the IC50 was determined as 1.86 nM.

Turning to `C[C@H]1C[C@@]2(C=CS(=O)(=O)N2c2cccc(F)c2)CCN1Cc1scnc1CC1CCC1` [Example 19, (5R,7S)-8-{[4-(cyclobutylmethyl)-1,3-thiazol-5-yl]methyl}-1-(3-fluorophenyl)-7-methyl-2-thia-1,8-diazaspiro[4.5]dec-3-ene 2,2-dioxide], the IC50 under setting [2] turned out to be 310 nM.

As for `C[C@H]1C[C@@]2(C=CS(=O)(=O)N2c2cccc(F)c2)CCN1Cc1ncoc1-c1cccnc1` [Example 22, (5R,7S)-1-(3-fluorophenyl)-7-methyl-8-[(5-pyridin-3-yl-1,3-oxazol-4-yl)methyl]-2-thia-1,8-diazaspiro[4.5]dec-3-ene 2,2-dioxide, hydrochloride salt], the IC50 under setting [2] came out at 414 nM.
